Results on 32 compounds are retold here after patent US20170001990A1 (Genentech, Inc., priority 2014, published 2017).

“And” between values parts separate entries of the source, which are not always exact repeats. Equal entries are not always repeated.

The assay deals with Human recombinant carboxy-terminal his-tagged LDHA (amino acids 2-332) (Homo sapiens, UniProt P00338). Briefly: LDHA enzyme inhibition assay (NADH fluorescence). The note with it: LDHA IC50 (μM), 1 nM LDHA, NADH and pyruvate, stereochemistry of tested sample given.
Description: Test compounds were diluted in 100% DMSO with 1:3 serial dilutions. […] For the enzyme reaction, serially diluted compounds were added to a mixture of enzyme and NADH. […] Following the baseline read, pyruvate was added to the assay plates and the plates were read with excitation 340 nm and emission 480 nm for 10 minutes every 2.5 seconds. A suitable linear timeframe was selected (150-400 s) to calculate the slope of each concentration tested. The raw data were fitted to 4-parameter dose-response curves using the following equation:
fit=(A+((B−A)/(1+((C/x)̂D))))
inv=(C/((((B−A)/(y−A))−)̂(1/D)))
res=(y−fit) • where A=minimum y, B=maximum y, C=50% y max, and D=slope factor.
The curve bottom was set to the background rate (initial 5 second recording prior to addition of pyruvate) and curve top was set to no inhibitor (DMSO only) control wells rate.
The compounds of the present invention were tested for their capacity to inhibit LDHA activity and activation as described in the enzyme inhibition assay described above.
As a reminder, the IC50 is the midpoint of a concentration-inhibition curve. For the compound `CC(C)(C)OCCOc1cccc(C2(c3ccsc3)CC(=O)C(Sc3ccccc3Cl)C(=O)N2)n1` (centres unmarked) [Example 230, 6-[6-(2-tert-butoxyethoxy)-2-pyridyl]-3-(2-chloro-phenyl)sulfanyl-6-(3-thienyl)piperidine-2,4-dione], the IC50 was determined as 0.022 µM.
The result for `O=C1CC(c2ccsc2)(c2cccc(OCCC3COC3)n2)NC(=O)C1Sc1ccccc1Cl` (centres unmarked) [Example 16, 3-(2-chlorophenyl)sulfanyl-6-[6-[2-(oxetan-3-yl)ethoxy]-2-pyridyl]-6-(3-thienyl)piperidine-2,4-dione] reads 0.105 µM and 0.076 µM.
The result for `O=C1CC(c2ccsc2)(c2cccc(Oc3cc(F)cc(CO)c3)n2)NC(=O)C1Sc1ccccc1Cl` (single isomer, unassigned) [Example 176, 3-(2-chlorophenyl)sulfanyl-6-[6-[3-fluoro-5-(hydroxymethyl)phenoxy]-2-pyridyl]-6-(3-thienyl) piperidine-2,4-dione] reads 0.01 µM; that for `O=C1CC(c2ccsc2)(c2cccc(Oc3cccc(F)c3F)n2)NC(=O)C1Sc1ccccc1Cl` (centres unmarked) [Example 53, 3-(2-chlorophenyl)sulfanyl-6-[6-(2,3-difluoro-phenoxy)-2-pyridyl]-6-(3-thienyl)piperidine-2,4-dione], 0.011 µM; that for `CC(C)Oc1cccc(C2(c3ccsc3)CC(=O)C(Sc3ccccc3Cl)C(=O)N2)n1` (centres unmarked) [Example 2, 3-(2-chlorophenyl)sulfanyl-6-(6-isopropoxy-2-pyridyl)-6-(3-thienyl)piperidine-2,4-dione], 0.082 µM.
The result for `O=C1C[C@@](c2ccsc2)(c2ccc(N3CCOCC3)c(F)c2)NC(=O)C1Sc1ccccc1Cl` (mixture of isomers) [Example 316, (6S)-3-(2-chlorophenyl) sulfanyl-6-(3-fluoro-4-morpholine-phenyl)-6-(3-thienyl)piperidine-2,4-dione] reads 0.044 µM; that for `CN(c1ccc(F)cc1)c1cccc(C2(c3ccsc3)CC(=O)C(Sc3ccccc3Cl)C(=O)N2)n1` (single isomer, unassigned) [Example 266, 3-((2-chlorophenyl)thio)-6-(6-((4-fluorophenyl) (methyl)amino)pyridin-2-yl)-6-(thiophen-3-yl) piperidine-2,4-dione], 0.099 µM; that for `CC1CN(c2ccc(C3(c4ccsc4)CC(=O)C(Sc4ccccc4Cl)C(=O)N3)cc2)CCO1` (centres unmarked) [Example 7, 3-(2-chlorophenyl)sulfanyl-6-[4-(2-methylmorpholin-4-yl)phenyl]-6-(3-thienyl)piperidine-2,4-dione], 0.009 µM.
As to `O=C1CC(c2ccsc2)(c2cccc(OCCCC(F)(F)F)n2)NC(=O)C1Sc1ccccc1Cl` (single isomer, unassigned) [Example 148, 3-(2-chlorophenyl)sulfanyl-6-(3-thienyl)-6-[6-(4,4,4-trifluorobutoxy)-2-pyridyl]piperidine-2,4-dione], the IC50 is 0.014 µM.
The result for `O=C1CC(c2ccsc2)(c2cccc(Oc3cccc(C(F)F)c3)n2)NC(=O)C1Sc1ccccc1Cl` (single isomer, unassigned) [Example 115, 3-(2-chlorophenyl)sulfanyl-6-[6-[3-(difluoromethyl)phenoxy]-2-pyridyl]-6-(3-thienyl)piperidine-2,4-dione] reads 0.031 µM.
The result for `O=C1CC(c2ccsc2)(c2cccc(NCCC3CC3)n2)NC(=O)C1Sc1ccccc1Cl` (single isomer, unassigned) [Example 110, 3-(2-chlorophenyl)sulfanyl-6-[6-(2-cyclopropylethyl-amino)-2-pyridyl]-6-(3-thienyl)piperidine-2,4-dione] reads 0.018 µM.
For `O=C1CC(c2ccsc2)(c2cccc(Oc3cccc4[nH]ncc34)n2)NC(=O)C1Sc1ccccc1Cl` (centres unmarked) [Example 103, 3-(2-chlorophenyl)sulfanyl-6-[6-(1H-indazol-4-yloxy)-2-pyridyl]-6-(3-thienyl) piperidine-2,4-dione] the value was 0.141 µM.
As to `O=C1CC(c2ccsc2)(c2cccc(Oc3ccccn3)n2)NC(=O)C1Sc1ccccc1Cl` (centres unmarked) [Example 96, 3-(2-chlorophenyl)sulfanyl-6-[6-(2-pyridyloxy)-2-pyridyl]-6-(3-thienyl) piperidine-2,4-dione], the IC50 is 0.019 µM.
For `O=C1CC(c2ccsc2)(c2cccc(OC3CCC(O)C3)n2)NC(=O)C1Sc1ccccc1Cl` (single isomer, unassigned) [Example 106, 3-((2-chlorophenyl)thio)-6-(6-((3-hydroxy-cyclopentyl)oxy)pyridin-2-yl)-6-(thiophen-3-yl)piperidin-2,4-dione] the value was 0.732 µM; for `O=C1CC(c2ccsc2)(c2cccc(OCC3CC(F)(F)C3)n2)NC(=O)C1Sc1ccccc1Cl` (single isomer, unassigned) [Example 196, 3-(2-chlorophenyl)sulfanyl-6-[6-[(3,3-difluorocyclo-butyl)methoxy]-2-pyridyl]-6-(3-thienyl)piperidine-2,4-dione], 0.036 µM.
The result for `O=C1CC(c2ccsc2)(c2ccc(N3CCOCC3)c(F)c2)NC(=O)C1Sc1ccccc1Cl` (centres unmarked) [Example 328, 3-(2-chlorophenyl)sulfanyl-6-(3-fluoro-4-morpholino-phenyl)-6-(3-thienyl)piperidine-2,4-dione] reads 0.054 µM; that for `O=C1CC(c2ccsc2)(c2cccc(N3CCCc4cccc(O)c43)n2)NC(=O)C1Sc1ccccc1Cl` (centres unmarked) [Example 105, 3-(2-chlorophenyl)sulfanyl-6-[6-(8-hydroxy-3,4-dihydro-2H-quinolin-1-yl)-2-pyridyl]-9-(3-thienyl)piperidine-2,4-dione], 0.125 µM.
With `O=C1CC(c2ccsc2)(c2cccc(OCC3CCOCC3)n2)NC(=O)C1Sc1ccccc1Cl` (single isomer, unassigned) [Example 209, 3-(2-chlorophenyl)sulfanyl-6-[6-(tetrahydropyran-4-ylmethoxy)-2-pyridyl]-6-(3-thienyl)piperidine-2,4-dione], the IC50 was 0.006 µM.
As to `O=C1CC(c2ccc(N3CCOCC3)cc2)(c2cccc(Nc3ccc(F)cc3)n2)NC(=O)C1Sc1ccccc1Cl` (centres unmarked) [Example 39, 3-((2-chlorophenyl)thio)-6-(6-((4-fluorophenyl)amino)pyridin-2-yl)-6-(4-morpholinophenyl)piperidine-2,4-dione], the IC50 was 0.003 µM and 0.012 µM.
The result for `O=C1CC(c2ccsc2)(c2cccc(Oc3cccc4ncccc34)n2)NC(=O)C1Sc1ccccc1Cl` (single isomer, unassigned) [Example 137, 3-(2-chlorophenyl)sulfanyl-6-[6-(5-quinolyloxy)-2-pyridyl]-6-(3-thienyl) piperidine-2,4-dione] reads 0.073 µM; that for `O=C1CC(c2ccsc2)(c2ccc(N3CCOCC3)c(Br)n2)NC(=O)C1Sc1ccccc1Cl` (centres unmarked) [Example 25, 6-(6-bromo-5-morpholino-2-pyridyl)-3-(2-chlorophenyl)sulfanyl-6-(3-thienyl)piperidine-2,4-dione], 0.023 µM; that for `O=C1CC(c2ccsc2)(c2cccc(Oc3cccc(F)c3)n2)NC(=O)C1Sc1ccccc1Cl` (centres unmarked) [Example 80, 3-(2-chlorophenyl)sulfanyl-6-[6-(3-fluorophenoxy)-2-pyridyl]-6-(3-thienyl) piperidine-2,4-dione], 0.056 µM.
For `Cc1csc(Nc2cccc(C3(c4ccsc4)CC(=O)C(Sc4ccccc4Cl)C(=O)N3)n2)n1` (centres unmarked) [Example 287, 3-((2-chlorophenyl)thio)-6-(6-((4-methylthiazol-2-yl)amino)pyridin-2-yl)-6-(thiophen-3-yl)piperidine-2,4-dione] the value was 0.01 µM; for `Cn1ccnc1COc1cccc(C2(c3ccsc3)CC(=O)C(Sc3ccccc3Cl)C(=O)N2)n1` (centres unmarked) [Example 229, 3-(2-chlorophenyl)sulfanyl-6-[6-[(1-methylimidazol-2-yl)methoxy]-2-pyridyl]-6-(3-thienyl)piperidine-2,4-dione], 0.011 µM; for `CC(Nc1cccc(C2(c3ccsc3)CC(=O)C(Sc3ccccc3Cl)C(=O)N2)n1)C1CC1` (centres unmarked) [Example 331], 0.148 µM.
The result for `O=C1CC(c2ccsc2)(c2cccc(Oc3ccc(C(F)(F)F)cc3)n2)NC(=O)C1Sc1ccccc1Cl` (centres unmarked) [Example 315, 3-(2-chlorophenyl)sulfanyl-6-(3-thienyl)-6-[6-[4-(trifluoromethyl)phenoxy]-2-pyridyl]piperidine-2,4-dione] reads 0.014 µM; that for `O=C1CC(c2ccsc2)(c2cccc(Oc3ccc(F)c(Br)c3)n2)NC(=O)C1Sc1ccccc1Cl` (single isomer, unassigned) [Example 149, 6-[6-(3-bromo-4-fluoro-phenoxy)-2-pyridyl]-3-(2-chlorophenyl)sulfanyl-6-(3-thienyl)piperidine-2,4-dione], 0.069 µM.
For `O=C1CC(c2ccsc2)(c2cccc(Oc3cccc4c3NCCC4)n2)NC(=O)C1Sc1ccccc1Cl` (centres unmarked) [Example 109, 3-((2-chlorophenyl)thio)-6-(6-((1,2,3,4-tetrahydro-quinolin-8-yl)oxy)pyridin-2-yl)-6-(thiophen-3-yl)piperidine-2,4-dione], the IC50 amounted to 0.01 µM.
For `O=C1CC(c2ccsc2)(c2cccc(OCC3CCC(CO)CC3)n2)NC(=O)C1Sc1ccccc1Cl` (single isomer, unassigned) [Example 233, 3-((2-chlorophenyl)thio)-6-(6-((4-(hydroxymethyl)cyclohexyl)methoxy)pyridin-2-yl)-6-(thiophen-3-yl)piperidine-2,4-dione] the value was 0.017 µM; for `O=C1CC(c2ccsc2)(c2cccc(OCCCC(F)(F)F)n2)NC(=O)C1Sc1ccccc1Cl` (single isomer, unassigned) [Example 142, 3-(2-chlorophenyl)sulfanyl-6-(3-thienyl)-6-[6-(4,4,4-trifluorobutoxy)-2-pyridyl]piperidine-2,4-dione], 0.031 µM; for `O=C1CC(c2ccsc2)(c2cccc(OCCC3CC3(F)F)n2)NC(=O)C1Sc1ccccc1Cl` (centres unmarked) [Example 20, 3-(2-chlorophenyl)sulfanyl-6-[6-[2-(2,2-difluorocyclopropyl)ethoxy]-2-pyridyl]-6-(3-thienyl)piperidine-2,4-dione], 0.039 µM.
For the compound `O=C1CC(c2ccsc2)(c2cccc(Oc3ccc(Cl)cc3)n2)NC(=O)C1Sc1ccccc1Cl` (centres unmarked) [Example 167, 6-[6-(4-chlorophenoxy)-2-pyridyl]-3-(2-chlorophenyl) sulfanyl-6-(3-thienyl) piperidine-2,4-dione], the IC50 is 0.006 µM.
